Our source for the IC50 and inhibition values is PMC5697638, “Identification of a Potent Phosphoinositide 3‐Kinase Pan Inhibitor Displaying a Strategic Carboxylic Acid Group and Development of Its Prodrugs” (Chemmedchem, 2017).

Holding throughout (type): biochemical
In assay [1] the target is T1, human PI3Kα (PIK3CA/PIK3R1) (Homo sapiens, UniProt P42336).
T1 construct: purchased ProQinase, Germany 1161‐1165‐1
Nature of the assay: lipid kinase assay (ADP-Glo), PI3Kα. The settings on record: for IC50: Table 2, mean of at least three determinations, 95 % confidence intervals, read-out: IC50 PI3Kα; for inhibition at 1 µM: determined at 1 μM, at least triplicate, read-out: Inhibitory activity, PI3K isoform α. As to the method:
(§1) In vitro selection, lipid kinase assay: To determine the inhibitory activity of the new molecular entities on PI3K enzyme, a lipid kinase assay was performed: recombinant proteins (30 ng), human PI3Kα (PIK3CA/PIK3R1, #1161‐1165‐1 ProQinase–Germany), hPI3Kβ (PIK3CB wt/PIK3R1, #1168‐1165‐1 ProQinase, Germany), hPI3Kγ (PIK3CG, #1163‐0000‐1 ProQinase, Germany), hPI3Kδ (PIK3CD/PIK3R1, #1162–1165‐1 ProQinase, Germany), hPI3K‐C2α (PIK3C2A, #14‐906 Merck Millipore_Merck KGaA, Germany), hPI3K‐C2β (PIK3C2B, #14‐907 Merck Millipore_Merck KGaA, Germany), hPI3K‐c2γ (PIK3C2G, #1207‐0000‐1 ProQinase, Germany), and hVps34 (PIK3C3, #1160‐0000‐1 ProQinase, Germany), were incubated in kinase buffer {12.5 μL; 20 mM Tris‐HCl pH 7.5, 10 mM MgCl2, 10 μM ATP, 0.05 mg mL^−1 BSA, 0.5 mM EDTA, 5 mM HEPES pH 7.5, for PI3Kα,PI3Kβ, PI3Kγ, PI3Kδ, PI3KC‐2α, and PI3KC‐2γ; 15 mM MnCl2, 5 mM EGTA, 100 μM ATP, 50 mM HEPES pH 7.5, 100 mM NaCl, and 0.03 % CHAPS for PI3K‐C2β and VPS34 {BSA=bovine serum albumin; EDTA=ethylenediaminetetraacetic acid; HEPES=4‐(2‐hydroxyethyl)‐1‐piperazineethanesulfonic acid; EGTA=ethylene glycol‐bis(2‐aminoethylether)‐N,N,N′,N′‐tetraacetic acid; CHAPS=3‐[(3‐cholamidopropyl)dimethylammonio]‐1‐propanesulfonate}. In the reaction, the ATP concentration used for different PI3Ks was defined on the basis of the Michaelis–Menten kinetics of each enzyme, provided by the supplier. Reaction was performed in presence of 0.5 mg mL^−1 lipid micelles (1:1 phosphatidylinositol/phosphatidylserine) and in the absence (DMSO alone) or presence of increasing concentrations of each compound (from 0.1 nM to 30 μM). The mixture was kept at room temperature (RT) for 30 min for PI3Kα, PI3Kβ, PI3Kγ, PI3Kδ, PI3KC‐2α, and PI3KC‐2γ and for 1 h for PI3K‐C2β and PI3K‐C3. The amount of ADP produced in the reaction was measured by using the ADP‐Glo Kinase Assay kit from Promega (#V9102) and a luminescence reader (Glomax multi detection system, Promega, model number 9301‐010).
(§2) The residual PI3K lipid kinase activity in the presence of each molecule at different concentrations was related to the control, intended as the recombinant protein in the presence of DMSO alone and was expressed as a percentage. To derive the IC50 value, all data (% of lipid kinase activity) were plotted on a dose–response curve (Graph Pad software), and the IC50 was calculated by using nonlinear regression fit (equation [log agonist] versus response).
A general note: ADP-Glo first removes unused ATP, then detects ADP through luciferase.

Assay [2] deals with T2, hPI3Kβ (PIK3CB wt/PIK3R1) (Homo sapiens, UniProt P42338).
T2 construct: purchased ProQinase, Germany 1168‐1165‐1
T2 sequence (P42338 whole entry): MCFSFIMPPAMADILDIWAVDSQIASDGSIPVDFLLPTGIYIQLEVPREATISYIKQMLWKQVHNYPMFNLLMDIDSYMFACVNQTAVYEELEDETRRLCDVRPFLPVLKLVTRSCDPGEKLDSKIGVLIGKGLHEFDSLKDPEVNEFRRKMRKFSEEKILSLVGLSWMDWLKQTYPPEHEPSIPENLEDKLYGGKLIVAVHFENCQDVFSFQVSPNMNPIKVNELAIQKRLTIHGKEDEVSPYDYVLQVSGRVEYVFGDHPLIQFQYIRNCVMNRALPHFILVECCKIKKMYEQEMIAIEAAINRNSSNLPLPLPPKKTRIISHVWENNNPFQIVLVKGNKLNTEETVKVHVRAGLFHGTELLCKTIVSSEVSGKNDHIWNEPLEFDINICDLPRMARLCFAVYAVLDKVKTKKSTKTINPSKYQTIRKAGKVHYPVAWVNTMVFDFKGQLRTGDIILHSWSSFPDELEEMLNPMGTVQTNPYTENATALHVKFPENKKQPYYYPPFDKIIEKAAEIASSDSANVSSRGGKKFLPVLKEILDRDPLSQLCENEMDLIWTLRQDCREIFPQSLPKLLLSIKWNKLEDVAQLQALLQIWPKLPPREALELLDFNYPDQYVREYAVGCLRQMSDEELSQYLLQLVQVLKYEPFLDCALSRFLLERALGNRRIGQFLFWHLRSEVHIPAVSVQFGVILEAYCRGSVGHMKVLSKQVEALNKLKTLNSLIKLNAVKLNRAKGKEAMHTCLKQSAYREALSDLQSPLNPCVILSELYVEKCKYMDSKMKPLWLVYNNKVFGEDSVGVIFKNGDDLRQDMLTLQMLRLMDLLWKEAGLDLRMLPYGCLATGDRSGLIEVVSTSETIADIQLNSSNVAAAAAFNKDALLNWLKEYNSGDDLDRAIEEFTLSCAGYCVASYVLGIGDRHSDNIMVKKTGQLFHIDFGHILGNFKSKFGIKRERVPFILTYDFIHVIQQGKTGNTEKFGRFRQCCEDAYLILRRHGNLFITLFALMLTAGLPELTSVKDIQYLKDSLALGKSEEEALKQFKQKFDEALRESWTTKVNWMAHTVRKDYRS
T2 sequence (P27986 whole entry partner): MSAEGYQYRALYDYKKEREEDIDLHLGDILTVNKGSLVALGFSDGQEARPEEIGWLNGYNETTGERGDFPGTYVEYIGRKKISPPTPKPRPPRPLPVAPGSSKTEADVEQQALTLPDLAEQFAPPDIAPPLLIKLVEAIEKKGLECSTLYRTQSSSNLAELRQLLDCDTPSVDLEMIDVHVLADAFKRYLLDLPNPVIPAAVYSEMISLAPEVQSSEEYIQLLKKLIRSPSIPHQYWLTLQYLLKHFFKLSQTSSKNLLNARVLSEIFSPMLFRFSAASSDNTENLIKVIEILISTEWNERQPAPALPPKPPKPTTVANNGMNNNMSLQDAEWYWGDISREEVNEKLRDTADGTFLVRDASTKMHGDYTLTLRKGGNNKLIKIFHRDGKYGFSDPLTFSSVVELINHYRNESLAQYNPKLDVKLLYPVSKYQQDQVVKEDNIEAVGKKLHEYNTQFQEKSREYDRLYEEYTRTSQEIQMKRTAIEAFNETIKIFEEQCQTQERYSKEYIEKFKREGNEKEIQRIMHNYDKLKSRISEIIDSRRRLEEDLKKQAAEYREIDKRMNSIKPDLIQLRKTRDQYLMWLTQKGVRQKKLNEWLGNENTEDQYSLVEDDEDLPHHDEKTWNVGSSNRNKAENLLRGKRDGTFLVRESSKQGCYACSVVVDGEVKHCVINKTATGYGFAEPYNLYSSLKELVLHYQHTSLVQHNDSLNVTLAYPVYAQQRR
Nature of the assay: lipid kinase assay (ADP-Glo), PI3Kβ. The settings on record: for IC50: Table 2, mean of at least three determinations, 95 % confidence intervals; for inhibition at 1 µM: determined at 1 μM, at least triplicate, read-out: Inhibitory activity, PI3K isoform β. On the procedure: as §1, §2

The target in a further assay is T3, hPI3Kγ (PIK3CG) (Homo sapiens, UniProt P48736).
T3 construct: purchased ProQinase, Germany 1163‐0000‐1
T3 sequence (P48736 whole entry): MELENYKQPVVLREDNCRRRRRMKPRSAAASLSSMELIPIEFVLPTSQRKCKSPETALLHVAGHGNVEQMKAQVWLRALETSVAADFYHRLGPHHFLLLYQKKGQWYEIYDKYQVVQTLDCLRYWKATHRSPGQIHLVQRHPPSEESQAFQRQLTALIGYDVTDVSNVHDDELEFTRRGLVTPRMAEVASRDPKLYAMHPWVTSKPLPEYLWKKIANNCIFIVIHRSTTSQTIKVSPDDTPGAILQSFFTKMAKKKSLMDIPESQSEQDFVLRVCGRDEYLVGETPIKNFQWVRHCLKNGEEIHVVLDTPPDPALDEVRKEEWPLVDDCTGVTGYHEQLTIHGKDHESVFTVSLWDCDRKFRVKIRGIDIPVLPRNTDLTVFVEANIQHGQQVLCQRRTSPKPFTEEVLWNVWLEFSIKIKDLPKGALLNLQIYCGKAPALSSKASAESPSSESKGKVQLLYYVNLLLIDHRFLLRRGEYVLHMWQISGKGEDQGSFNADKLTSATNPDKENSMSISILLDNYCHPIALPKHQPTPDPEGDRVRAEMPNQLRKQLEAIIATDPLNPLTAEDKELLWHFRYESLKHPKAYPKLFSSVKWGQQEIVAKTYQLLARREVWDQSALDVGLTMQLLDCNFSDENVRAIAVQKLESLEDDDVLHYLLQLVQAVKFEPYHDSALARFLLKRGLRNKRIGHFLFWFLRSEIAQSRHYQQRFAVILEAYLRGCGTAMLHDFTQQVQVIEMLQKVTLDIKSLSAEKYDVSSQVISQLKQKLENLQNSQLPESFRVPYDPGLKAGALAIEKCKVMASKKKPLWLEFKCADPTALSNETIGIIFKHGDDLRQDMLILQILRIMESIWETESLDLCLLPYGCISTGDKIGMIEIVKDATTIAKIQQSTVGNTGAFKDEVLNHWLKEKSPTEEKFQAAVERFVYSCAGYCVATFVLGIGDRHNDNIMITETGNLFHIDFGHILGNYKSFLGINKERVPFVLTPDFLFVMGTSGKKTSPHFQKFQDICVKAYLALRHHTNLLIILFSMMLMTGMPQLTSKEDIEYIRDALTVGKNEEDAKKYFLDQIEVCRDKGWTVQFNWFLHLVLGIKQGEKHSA
Description: lipid kinase assay (ADP-Glo), PI3Kγ. The settings on record: for IC50: Table 2, mean of at least three determinations, 95 % confidence intervals; for inhibition at 1 µM: determined at 1 μM, at least triplicate, read-out: Inhibitory activity, PI3K isoform γ. As to the method: as §1, §2

The target in another assay is T4, hPI3Kδ (PIK3CD/PIK3R1) (Homo sapiens, UniProt O00329).
T4 construct: purchased ProQinase, Germany 1162–1165‐1
T4 sequence (O00329 whole entry): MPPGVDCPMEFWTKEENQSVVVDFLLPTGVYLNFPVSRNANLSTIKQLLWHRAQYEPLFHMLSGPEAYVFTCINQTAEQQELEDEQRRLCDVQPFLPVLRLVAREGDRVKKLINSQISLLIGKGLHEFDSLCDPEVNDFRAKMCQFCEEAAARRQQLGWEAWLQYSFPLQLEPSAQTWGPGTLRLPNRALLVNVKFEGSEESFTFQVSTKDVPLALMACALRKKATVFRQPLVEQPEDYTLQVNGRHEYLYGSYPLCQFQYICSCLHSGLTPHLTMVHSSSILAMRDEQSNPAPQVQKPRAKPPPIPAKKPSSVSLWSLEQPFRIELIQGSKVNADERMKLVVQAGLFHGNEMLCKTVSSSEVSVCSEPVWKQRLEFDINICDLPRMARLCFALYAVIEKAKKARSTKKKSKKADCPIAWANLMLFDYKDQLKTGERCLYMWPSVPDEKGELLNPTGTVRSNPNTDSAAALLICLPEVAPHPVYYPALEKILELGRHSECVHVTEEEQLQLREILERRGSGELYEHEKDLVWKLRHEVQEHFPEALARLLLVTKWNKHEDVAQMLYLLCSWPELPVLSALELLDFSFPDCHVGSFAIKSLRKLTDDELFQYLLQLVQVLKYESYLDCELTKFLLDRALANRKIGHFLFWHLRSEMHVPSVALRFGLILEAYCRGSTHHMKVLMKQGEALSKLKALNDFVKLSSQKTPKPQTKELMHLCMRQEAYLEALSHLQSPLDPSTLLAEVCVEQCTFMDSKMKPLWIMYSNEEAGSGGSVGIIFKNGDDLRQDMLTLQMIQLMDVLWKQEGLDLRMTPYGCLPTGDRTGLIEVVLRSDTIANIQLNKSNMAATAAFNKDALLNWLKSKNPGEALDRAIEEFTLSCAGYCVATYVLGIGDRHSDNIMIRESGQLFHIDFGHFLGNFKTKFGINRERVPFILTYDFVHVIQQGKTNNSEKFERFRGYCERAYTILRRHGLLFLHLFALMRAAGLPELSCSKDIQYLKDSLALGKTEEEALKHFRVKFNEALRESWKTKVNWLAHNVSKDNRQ
T4 sequence (P27986 whole entry partner): as the sequence (P27986 whole entry partner) above
Description: lipid kinase assay (ADP-Glo), PI3Kδ. The settings on record: for IC50: Table 2, mean of at least three determinations, 95 % confidence intervals; for inhibition at 1 µM: determined at 1 μM, at least triplicate, read-out: Inhibitory activity, PI3K isoform δ. As to the method: as §1, §2

T1 sequence (P42336 whole entry): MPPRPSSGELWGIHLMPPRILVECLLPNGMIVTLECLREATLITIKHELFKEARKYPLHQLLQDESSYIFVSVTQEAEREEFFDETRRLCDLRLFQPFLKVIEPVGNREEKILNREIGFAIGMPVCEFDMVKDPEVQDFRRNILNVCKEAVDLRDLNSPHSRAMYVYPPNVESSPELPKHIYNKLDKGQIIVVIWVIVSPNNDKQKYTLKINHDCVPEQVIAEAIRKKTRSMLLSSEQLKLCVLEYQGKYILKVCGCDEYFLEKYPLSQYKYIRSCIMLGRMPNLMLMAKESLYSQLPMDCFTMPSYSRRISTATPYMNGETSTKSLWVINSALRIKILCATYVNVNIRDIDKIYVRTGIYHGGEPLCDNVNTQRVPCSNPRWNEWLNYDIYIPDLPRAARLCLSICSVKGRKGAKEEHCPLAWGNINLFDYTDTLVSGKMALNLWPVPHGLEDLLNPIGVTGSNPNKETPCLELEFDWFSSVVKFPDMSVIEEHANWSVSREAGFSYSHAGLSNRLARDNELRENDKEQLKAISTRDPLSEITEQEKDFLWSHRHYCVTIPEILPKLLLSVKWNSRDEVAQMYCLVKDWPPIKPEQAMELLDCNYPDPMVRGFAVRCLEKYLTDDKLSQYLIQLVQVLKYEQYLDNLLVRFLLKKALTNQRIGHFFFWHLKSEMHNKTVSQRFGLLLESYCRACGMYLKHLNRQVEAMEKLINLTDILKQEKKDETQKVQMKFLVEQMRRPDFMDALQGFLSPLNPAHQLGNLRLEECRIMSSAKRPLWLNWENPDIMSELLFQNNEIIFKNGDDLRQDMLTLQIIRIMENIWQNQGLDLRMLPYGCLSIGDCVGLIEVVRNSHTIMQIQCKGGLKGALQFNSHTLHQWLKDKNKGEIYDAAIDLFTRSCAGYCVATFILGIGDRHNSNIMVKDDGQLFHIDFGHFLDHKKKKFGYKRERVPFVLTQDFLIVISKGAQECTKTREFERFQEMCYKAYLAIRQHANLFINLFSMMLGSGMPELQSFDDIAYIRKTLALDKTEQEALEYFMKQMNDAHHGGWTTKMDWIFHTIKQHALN
T1 sequence (P27986 whole entry partner): as the sequence (P27986 whole entry partner) above

`O=C(O)c1ccc(-n2cc(-c3cccc4c(=O)cc(N5CCOCC5)[nH]c34)nn2)cc1` [Compound 45, 4‐[4‐(2‐Morpholino‐4‐oxo‐1,4‐dihydroquinolin‐8‐yl)‐1H‐1,2,3‐triazol‐1‐yl]benzoic acid]: the IC50 in assay [1] came out at 320 ± 200 nM; in assay [2], 300 ± 200 nM; against hPI3Kγ (PIK3CG) it was 300 ± 200 nM; on hPI3Kδ (PIK3CD/PIK3R1), 170 ± 100 nM. Besides, the inhibition at 1 µM (in assay [1]; in assay [2]; on hPI3Kγ (PIK3CG); at hPI3Kδ (PIK3CD/PIK3R1)) was more than 50% each time.

Turning to `O=c1cc(N2CCOCC2)[nH]c2c(-c3cn(Cc4ccccc4)nn3)cccc12` [Compound 48, 8‐(1‐Benzyl‐1H‐1,2,3‐triazol‐4‐yl)‐2‐morpholinoquinolin‐4(1H)‐one], the IC50 in assay [1] came out at 2650 ± 800 nM; in assay [2] it was 100 ± 40 nM; against hPI3Kγ (PIK3CG), 1000 ± 500 nM; at hPI3Kδ (PIK3CD/PIK3R1) it was 470 ± 260 nM. The inhibition at 1 µM in assay [1] was less than 50%; in assay [2], more than 50%; on hPI3Kγ (PIK3CG), more than 50%; on hPI3Kδ (PIK3CD/PIK3R1) it was more than 50%.

With `O=c1cc(N2CCOCC2)[nH]c2c(-c3cn(-c4ccc5ccccc5c4)nn3)cccc12` [Compound 34, 2‐Morpholino‐8‐[1‐(naphthalen‐2‐yl)‐1H‐1,2,3‐triazol‐4‐yl]quinolin‐4(1H)‐one], the inhibition at 1 µM (in assay [1]; in assay [2]; at hPI3Kγ (PIK3CG); at hPI3Kδ (PIK3CD/PIK3R1)) was less than 50% in each case.

Regarding `O=c1cc(N2CCOCC2)[nH]c2c(-c3cn(-c4ccccc4O)nn3)cccc12` [Compound 54, 8‐[1‐(2‐Hydroxyphenyl)‐1H‐1,2,3‐triazol‐4‐yl]‐2‐morpholinoquinolin‐4(1H)‐one], the half-maximal inhibitory concentration (IC50) in assay [1] came to 260 ± 120 nM; in assay [2], 1100 ± 500 nM; against hPI3Kγ (PIK3CG) it was 1400 ± 440 nM; on hPI3Kδ (PIK3CD/PIK3R1), 350 ± 170 nM. Besides, the inhibition at 1 µM in assay [1] is more than 50%; in assay [2] it was less than 50%; at hPI3Kγ (PIK3CG), less than 50%; on hPI3Kδ (PIK3CD/PIK3R1) it was more than 50%.

In the case of `O=c1cc(N2CCOCC2)[nH]c2c(-c3cn(-c4cccc(O)c4)nn3)cccc12` [Compound 26, 8‐[1‐(3‐Hydroxyphenyl)‐1H‐1,2,3‐triazol‐4‐yl]‐2‐morpholinoquinolin‐4(1H)‐one], the inhibition at 1 µM (in assay [1]; in assay [2]; on hPI3Kγ (PIK3CG); at hPI3Kδ (PIK3CD/PIK3R1)) was less than 50% in each case.

As for `N#CCc1ccc(-n2cc(-c3cccc4c(=O)cc(N5CCOCC5)[nH]c34)nn2)cc1` [Compound 33, 2‐{4‐[4‐(2‐Morpholino‐4‐oxo‐1,4‐dihydroquinolin‐8‐yl)‐1H‐1,2,3‐triazol‐1‐yl]phenyl} acetonitrile], the inhibition at 1 µM (in assay [1]; in assay [2]; at hPI3Kγ (PIK3CG); at hPI3Kδ (PIK3CD/PIK3R1)) was less than 50% throughout.

As to `Cc1cc(F)ccc1Oc1cccc2c(=O)cc(N3CCOCC3)[nH]c12` [TGX155, reference compound], the IC50 in assay [1] was more than 10000 nM; in assay [2], 96 ± 7 nM; on hPI3Kγ (PIK3CG), 9400 ± 1200 nM; at hPI3Kδ (PIK3CD/PIK3R1), 410 ± 130 nM.

As for `O=C(O)c1cccc(-n2cc(-c3cccc4c(=O)cc(N5CCOCC5)[nH]c34)nn2)c1` [Compound 52, 3‐[4‐(2‐Morpholino‐4‐oxo‐1,4‐dihydroquinolin‐8‐yl)‐1H‐1,2,3‐triazol‐1‐yl]benzoic acid], the inhibition at 1 µM (in assay [1]; in assay [2]; at hPI3Kγ (PIK3CG); at hPI3Kδ (PIK3CD/PIK3R1)) was less than 50% in each case.

For the molecule `COc1ccc(-n2cc(-c3cccc4c(=O)cc(N5CCOCC5)[nH]c34)nn2)cc1[N+](=O)[O-]` [Compound 30, 8‐[1‐(4‐Methoxy‐3‐nitrophenyl)‐1H‐1,2,3‐triazol‐4‐yl]‐2‐morpholinoquinolin‐4(1H)‐one], the inhibition at 1 µM (in assay [1]; in assay [2]; on hPI3Kγ (PIK3CG); on hPI3Kδ (PIK3CD/PIK3R1)) was less than 50% each time.

Consider `O=c1cc(N2CCOCC2)[nH]c2c(-c3cn(-c4ccccc4CO)nn3)cccc12` [Compound 41, 8‐{1‐[2‐(Hydroxymethyl)phenyl]‐1H‐1,2,3‐triazol‐4‐yl}‐2‐morpholinoquinolin‐4(1H)‐one], for which the inhibition at 1 µM (in assay [1]; in assay [2]; on hPI3Kγ (PIK3CG); at hPI3Kδ (PIK3CD/PIK3R1)) was less than 50% throughout.

Take `COc1ccc(-n2cc(-c3cccc4c(=O)cc(N5CCOCC5)[nH]c34)nn2)cc1` [Compound 44, 8‐[1‐(4‐Methoxyphenyl)‐1H‐1,2,3‐triazol‐4‐yl]‐2‐morpholinoquinolin‐4(1H)‐one]: the inhibition at 1 µM (in assay [1]; in assay [2]; on hPI3Kγ (PIK3CG); on hPI3Kδ (PIK3CD/PIK3R1)) was less than 50% in each case.

Turning to `Cc1cc(O)ccc1-n1cc(-c2cccc3c(=O)cc(N4CCOCC4)[nH]c23)nn1` [Compound 40, 8‐[1‐(4‐Hydroxy‐2‐methylphenyl)‐1H‐1,2,3‐triazol‐4‐yl]‐2‐morpholinoquinolin‐4(1H)‐one], the inhibition at 1 µM (in assay [1]; in assay [2]; at hPI3Kγ (PIK3CG); on hPI3Kδ (PIK3CD/PIK3R1)) was less than 50% in each case.

On to `O=c1cc(N2CCOCC2)[nH]c2c(-c3cn(-c4ccccc4)nn3)cccc12` [Compound 25, 2‐Morpholino‐8‐(1‐phenyl‐1H‐1,2,3‐triazol‐4‐yl)quinolin‐4(1H)‐one], for which the IC50 in assay [1] came to 740 ± 310 nM; in assay [2], 5500 ± 2500 nM; on hPI3Kγ (PIK3CG), 3000 ± 1000 nM; at hPI3Kδ (PIK3CD/PIK3R1), 610 ± 270 nM. The inhibition at 1 µM was more than 50% in assay [1], less than 50% in assay [2], less than 50% on hPI3Kγ (PIK3CG) and more than 50% at hPI3Kδ (PIK3CD/PIK3R1).

As for `COC(=O)c1ccc(-n2cc(-c3cccc4c(=O)cc(N5CCOCC5)[nH]c34)nn2)cc1` [Compound 42, Methyl 4‐[4‐(2‐morpholino‐4‐oxo‐1,4‐dihydroquinolin‐8‐yl)‐1H‐1,2,3‐triazol‐1‐yl]benzoate], the inhibition at 1 µM (in assay [1]; in assay [2]; at hPI3Kγ (PIK3CG); at hPI3Kδ (PIK3CD/PIK3R1)) was less than 50% each time.

As for `O=c1cc(N2CCOCC2)[nH]c2c(-c3cn(-c4cnc5ccccc5c4)nn3)cccc12` [Compound 36, 2‐Morpholino‐8‐[1‐(quinolin‐3‐yl)‐1H‐1,2,3‐triazol‐4‐yl]quinolin‐4(1H)‐one], the inhibition at 1 µM (in assay [1]; in assay [2]; at hPI3Kγ (PIK3CG); at hPI3Kδ (PIK3CD/PIK3R1)) was less than 50% throughout.

For `O=c1cc(N2CCOCC2)[nH]c2c(-c3cn(-c4ccc5c(c4)OCO5)nn3)cccc12` [Compound 46, 8‐[1‐(Benzo[d][1,3]dioxol‐5‐yl)‐1H‐1,2,3‐triazol‐4‐yl]‐2‐morpholinoquinolin‐4(1H)‐one], the inhibition at 1 µM (in assay [1]; in assay [2]; at hPI3Kγ (PIK3CG); at hPI3Kδ (PIK3CD/PIK3R1)) was less than 50% in each case.

By IC50 is commonly meant the concentration needed to halve the response being measured.
